{
  "source": "patent US5302610A",
  "about": "“Renal-selective biphenylmethyl imidazole angiotensin II antagonists for treatment of hypertension” (G. D. Searle & Co., priority 1991, dated 1994)",
  "key": {"kidney": {"test_system": "kidney", "settings": "normal subjects; cited from earlier work"}, "dopa-decarboxylase": {"test_system": "dopa-decarboxylase", "settings": "in vivo; cited from earlier work"}, "[1]": {"test_system": "γ-glutamyl transpeptidase", "settings": "dogs; cited from earlier work"}, "[2]": {"test_system": "non-renal, vascular angiotensin II receptors", "assay": "Assay D: AII Pressor Response during chronic infusion of conjugate", "type": "in vivo, spontaneously hypertensive rats (SHR)", "settings": "for AII Pressor Response (MAP): AII 100 ng/kg bolus", "description": "(§1) This in vivo experiment was conducted to characterize the effects of the Example 81 conjugate on spontaneously hypertensive rats (SHR) by acute administration i.v. and by chronic administration i.v. The Example 81 compound or saline vehicle was infused continuously for four days in SHR. Mean arterial pressure was measured (Gould Chart Recorder, model 3800; Statham P23Db pressure transducer) via an indwelling femoral artery catheter between 10:00 A. M. and 2:00 P. M. each day. The Example 81 conjugate (10 mg/hr) or saline was infused via a jugular vein catheter with a Harvard infusion pump. […] A test was conducted to determine whether the Example 81 conjugate would antagonize non-renal, vascular angiotensin II receptors. In this test AII was administered by bolus injection (100 ng/kg) to the SHR rats (described above) on the control day and on days 1, 2 and 3 during conjugate infusion."}, "[3]": {"test_system": "response to angiotensin II (mean arterial pressure)", "assay": "Assay E: Mean Arterial Pressure, acute administration with AII infusion", "type": "in vivo, male Sprague-Dawley rats, conscious", "settings": "for Mean Arterial Pressure: n = 6, means±SE", "description": "(§2) antagonist compound (Ex. #5) and a glutamyl conjugate (Ex. #81) of the Ex. #5 AII antagonist compound to determine the renal selectivity of the conjugate. Male Sprague-Dawley rats (300-350 g body weight) had catheters implanted into the femoral artery and vein under chloral hydrate anesthesia (400 mg/kg, i.p.). After 2 to 4 days of recovery, on the experimental day, a urinary bladder catheter was implanted under methohexital anesthesia (50 mg/kg, i.p.). Rats were placed in a restraint device to allow for urine collection and mean arterial pressure measurements. After 1-2 hours of recovery, in conscious rats, an isotonic saline infusion (50 μl/min) was started and continued for the duration of the experiment. After one hour equilibration to the saline infusion, a 20 minute control urine and mean arterial pressure collection were obtained. Then angiotensin II was infused at 20 ng/min for 25 minutes. After 5 minutes of angiotensin II infusion, a 20 minute experimental collection was made. Finally, 5 minutes after the end of angiotensin II infusion, a 20 minute recovery collection was obtained. In separate groups of rats, vehicle (0.3 ml isotonic saline, i.v. bolus), Example #5 angiotensin II antagonist compound (100 mg/kg, i.v. bolus), or Example #81 conjugate (100 mg/kg, i.v. bolus) was administered 1-2 minutes prior to onset of angiotensin II infusion. […] Results are shown in Tables XIII and XIV and also in FIGS. 3 and 4. Data are presented as means±SE. Repeated measures analysis of variance was used for main effects and interactions and Tukey's HSD test was used for pairwise comparisons among means. Statistical significance was defined as p<0.05."}, "[4]": {"test_system": "spontaneously hypertensive rats (SHR)", "assay": "Assay D: Mean Arterial Pressure, chronic infusion of conjugate", "type": "in vivo", "description": "as §1"}, "[5]": {"test_system": "response to angiotensin II (urinary sodium excretion)", "assay": "Assay E: Urinary Sodium Excretion, acute administration with AII infusion", "type": "in vivo, male Sprague-Dawley rats, conscious", "settings": "for Urinary Sodium Excretion: means±SE", "description": "as §2"}, "angiotensin II": {"test_system": "angiotensin II", "settings": "binding experiments, functional assays and in vivo tests; cited from earlier work"}, "[6]": {"settings": "in vivo; cited from earlier work"}, "angiotensin II receptors": {"test_system": "angiotensin II receptors", "settings": "cited from earlier work"}, "guanylate cyclase": {"test_system": "guanylate cyclase", "settings": "cited from earlier work"}, "[7]": {"settings": "Control day (baseline before infusion)"}, "[8]": {"settings": "100 mg/kg i.v. bolus, Recovery after AII infusion"}, "[9]": {"settings": "100 mg/kg i.v. bolus, during AII infusion 20 ng/min, * in table"}, "[10]": {"settings": "100 mg/kg, i.v. bolus, AII 20 ng/min"}},
  "data": [
    {"compound": "N[C@@H](CCC(=O)N[C@@H](Cc1ccc(O)c(O)c1)C(=O)O)C(=O)O", "note": "[gludopa, γ-L-glutamyl-L-dopa]", "values": [
      {"measurement": "kidney specificity", "setting": "kidney", "value": "relatively specific for the kidney"},
      {"measurement": "renal blood flow, glomerular filtration and urinary sodium excretion", "setting": "kidney", "value": "increase renal blood flow, glomerular filtration and urinary sodium excretion in normal subjects"},
      {"measurement": "blockade of activity by the dopa-decarboxylase inhibitor carbidopa", "setting": "dopa-decarboxylase", "value": "activity can be blocked by the dopa-decarboxylase inhibitor carbidopa"}
    ]},
    {"compound": "N[C@@H](CCC(=O)NCCc1ccc(O)c(O)c1)C(=O)O", "note": "[L-γ-glutamyl amide of dopamine]", "values": [
      {"measurement": "generation of dopamine in vivo", "setting": "[1]", "value": "generate dopamine in vivo by specific enzymatic cleavage by γ-glutamyl transpeptidase"}
    ]},
    {"compound": "CCCCc1nc(Cl)c(CO)n1Cc1ccc(-c2ccccc2C(=O)NNC(=O)CC[C@H](NC(C)=O)C(=O)O)cc1", "note": "[Example 81, N-acetyl-L-glutamic acid, 5-[[4'-[2-butyl-4-chloro-5-(hydroxymethyl)-1H-imidazol-1-ylmethyl][1,1'-biphenyl]-2-yl]carbonyl]hydrazide]", "values": [
      {"measurement": "systemic angiotensin II receptor antagonism", "setting": "[2]; 10 mg/hr i.v. infusion, days 1, 2 and 3", "value": "No evidence for systemic angiotensin II receptor antagonism was observed"},
      {"measurement": "AII Pressor Response (MAP)", "setting": "[2]; 10 mg/hr i.v. infusion, day 1", "value": 45, "unit": "mm Hg"},
      {"measurement": "AII Pressor Response (MAP)", "setting": "[2]; 10 mg/hr i.v. infusion, day 2", "value": 65, "unit": "mm Hg"},
      {"measurement": "AII Pressor Response (MAP)", "setting": "[2]; 10 mg/hr i.v. infusion, day 3", "value": 60, "unit": "mm Hg"},
      {"measurement": "AII Pressor Response (MAP)", "setting": "[2]; [7]", "value": 44, "unit": "mm Hg"},
      {"measurement": "Mean Arterial Pressure", "setting": "[3]; [8]", "value": "121 ± 4", "unit": "mm Hg"},
      {"measurement": "Mean Arterial Pressure", "setting": "[3]; [9]", "value": "151 ± 4", "unit": "mm Hg"},
      {"measurement": "mean arterial pressure response to angiotensin II", "setting": "[3]; [10]", "value": "had no effect on the mean arterial pressure response"},
      {"measurement": "Mean Arterial Pressure", "setting": "[3]; Control period (before dosing)", "value": "117 ± 3", "unit": "mm Hg"},
      {"measurement": "mean arterial pressure as compared to saline vehicle control", "setting": "[4]; 10 mg/hr i.v. infusion, SHR", "value": "lowered mean arterial pressure as compared to the saline vehicle control"},
      {"measurement": "Mean Arterial Pressure (MAP)", "setting": "[4]; 10 mg/hr i.v. infusion, day 1", "value": 148, "unit": "mm Hg"},
      {"measurement": "Mean Arterial Pressure (MAP)", "setting": "[4]; 10 mg/hr i.v. infusion, day 2", "value": 135, "unit": "mm Hg"},
      {"measurement": "Mean Arterial Pressure (MAP)", "setting": "[4]; 10 mg/hr i.v. infusion, day 3", "value": 140, "unit": "mm Hg"},
      {"measurement": "Mean Arterial Pressure (MAP)", "setting": "[4]; [7]", "value": 163, "unit": "mm Hg"},
      {"measurement": "Urinary Sodium Excretion", "setting": "[5]; [8]", "value": "1.8 ± 0.4", "unit": "μEq/min/100 g BW"},
      {"measurement": "Urinary Sodium Excretion", "setting": "[5]; [9]", "value": "4.1 ± 1.3", "unit": "μEq/min/100 g BW"},
      {"measurement": "antinatriuretic (urinary sodium excretion) response to angiotensin II", "setting": "[5]; [10]", "value": "prevented the antinatriuretic response to angiotensin II"},
      {"measurement": "urinary sodium excretion during angiotensin II infusion", "setting": "[5]; [10]", "value": "actually increased urinary sodium excretion"},
      {"measurement": "Urinary Sodium Excretion", "setting": "[5]; Control period (before dosing)", "value": "1.3 ± 0.3", "unit": "μEq/min/100 g BW"}
    ]},
    {"compound": "CCCCc1nc(Cl)c(CC(=O)O)n1Cc1ccccc1[N+](=O)[O-]", "note": "[2-butyl-4-choloro-1-(2-nitrobenzyl)imidazole-5-acetic acid]", "values": [
      {"measurement": "angiotensin II antagonist activity", "setting": "angiotensin II", "value": "specific competitive angiotensin II antagonist activity"}
    ]},
    {"compound": "CCCCc1nc(Cl)c(CC(=O)O)n1Cc1ccccc1Cl", "note": "[2-n-butyl-4-chloro-1-(2-chlorobenzyl)imidazole-5-acetic acid]", "values": [
      {"measurement": "angiotensin II antagonist activity", "setting": "angiotensin II", "value": "specific competitive angiotensin II antagonist activity"}
    ]},
    {"compound": "angiotensin II: an octapeptide which is the primary active species of this system (DRVYIHPF; Angiotensin-2; UniProt P01019 25-32, looked up) [reference compound]", "values": [
      {"measurement": "effect of angiotensin II infusion on mean arterial pressure", "setting": "[3]; AII 20 ng/min for 25 minutes", "value": "increased mean arterial pressure"},
      {"measurement": "effect of angiotensin II infusion on urinary sodium excretion", "setting": "[5]; AII 20 ng/min for 25 minutes", "value": "decreased urinary sodium excretion"}
    ]},
    {"compound": "CCCCc1ccc(NNC(=O)CCC(NC(C)=O)C(=O)O)nc1", "note": "(stereo not drawn)", "values": [
      {"measurement": "renal vasodilation", "setting": "[6]", "value": "provided selective renal vasodilation"}
    ]},
    {"compound": "CNCC(=O)N[C@@H](CCCN=C(N)N)C(=O)N[C@H](C(=O)N[C@@H](Cc1ccc(O)cc1)C(=O)N[C@H](C(=O)N[C@@H](Cc1cnc[nH]1)C(=O)N1CCC[C@H]1C(=O)N[C@@H](C)C(=O)O)C(C)C)C(C)C", "note": "[Saralasin]", "values": [
      {"measurement": "residual agonist activity", "setting": "angiotensin II receptors", "value": "have a significant residual agonist activity"}
    ]},
    {"compound": "CCCCc1ccc(NN)nc1", "note": "[2-hydrazino-5-n-butylpyridine]", "values": [
      {"measurement": "guanylate cyclase activity", "setting": "guanylate cyclase", "value": "stimulates guanylate cyclase activity"}
    ]}
  ]
}
